Values after ≈ are worked out from the molar mass of the structure shown.
Key:
HEK-293T = experiment: Antiinflammatory activity against HEK-293T cells assessed as inhibition of TNF-alpha induced NF-kappaB activation at 5 uM preincubated for 2 hrs followed by TNFalpha stimulation for 6 hrs by dual-luciferase reporter assay relative to control; assay type: functional; conditions: Homo sapiens, time 8 hrs
HCT-8 [1] = experiment: Antiproliferative activity against human HCT-8 cells assessed as inhibition of cell growth incubated for 72 hrs by MTT assay; assay type: functional, cell-based; conditions: HCT-8, 72 h
Bel-7402 = experiment: Antiproliferative activity against human Bel-7402 cells assessed as inhibition of cell growth incubated for 72 hrs by MTT assay; assay type: functional, cell-based; conditions: Bel-7402, 72 h
A549 = experiment: Antiproliferative activity against human A549 cells assessed as inhibition of cell growth incubated for 72 hrs by MTT assay; assay type: functional, cell-based; conditions: A549, 72 h
HeLa [2] = experiment: Antiproliferative activity against human HeLa cells assessed as inhibition of cell growth incubated for 72 hrs by MTT assay; assay type: functional, cell-based
HCT-116 = experiment: Antiproliferative activity against human HCT-116 cells assessed as inhibition of cell proliferation incubated for 48 hrs by MTT assay; assay type: functional, cell-based; conditions: HCT-116, 48 h
LS174T = experiment: Antiproliferative activity against human LS174T cells assessed as inhibition of cell proliferation incubated for 48 hrs by MTT assay; assay type: functional, cell-based
SW-620 = experiment: Antiproliferative activity against human SW620 cells assessed as inhibition of cell proliferation incubated for 48 hrs by MTT assay; assay type: functional, cell-based; conditions: SW-620, 48 h
SGC-7901 = experiment: Antiproliferative activity against human SGC-7901 cells assessed as inhibition of cell proliferation incubated for 48 hrs by MTT assay; assay type: functional, cell-based; conditions: SGC-7901, 48 h
ECa-109 cell line = experiment: Antiproliferative activity against human Eca-109 cells assessed as inhibition of cell proliferation incubated for 48 hrs by MTT assay; assay type: functional, cell-based; conditions: ECa-109, 48 h
MKN-28 = experiment: Antiproliferative activity against human MKN-28 cells assessed as inhibition of cell proliferation incubated for 48 hrs by MTT assay; assay type: functional, cell-based; conditions: MKN-28, 48 h
HCT-8 [3] = experiment: Antiproliferative activity against human HCT-8 cells assessed as inhibition of cell proliferation incubated for 48 hrs by MTT assay; assay type: functional, cell-based; conditions: HCT-8, 48 h
CCRF S-180 = experiment: Antiproliferative activity against mouse CCRF S-180 cells assessed as inhibition of cell proliferation incubated for 48 hrs by MTT assay; assay type: functional, cell-based; conditions: CCRF S-180, 48 h
Staphylococcus aureus [4] = experiment: Antibacterial activity against methicillin-resistant Staphylococcus aureus assessed as inhibition of bacterial growth incubated for 24 hrs by CLSI based broth microdilution method; assay type: functional
Pseudomonas aeruginosa [5] = experiment: Antibacterial activity against Pseudomonas aeruginosa 27853 assessed as inhibition of bacterial growth incubated for 24 hrs by CLSI based broth microdilution method; assay type: functional
Candida parapsilosis = experiment: Antifungal activity against Candida parapsilosis ATCC 22019 assessed as inhibition of fungal growth incubated for 24 hrs; assay type: functional; conditions: Lodderomyces parapsilosis
Candida albicans = experiment: Antifungal activity against Candida albicans ATCC 90023 assessed as inhibition of fungal growth incubated for 24 hrs; assay type: functional
[6] = target: Histone acetyltransferase p300 (Homo sapiens, UniProt Q09472); experiment: Inhibition of N-terminal His/GST-tagged recombinant human p300 HAT domain (965 to 1810 residues) expressed in Sf9 insect cells using isotope labelled 3H-Ac-CoA as substrate incubated for 60 mins by microbeta counter based analysis
Sequence of Histone acetyltransferase p300 (Q09472 whole entry, the tested form may be a part): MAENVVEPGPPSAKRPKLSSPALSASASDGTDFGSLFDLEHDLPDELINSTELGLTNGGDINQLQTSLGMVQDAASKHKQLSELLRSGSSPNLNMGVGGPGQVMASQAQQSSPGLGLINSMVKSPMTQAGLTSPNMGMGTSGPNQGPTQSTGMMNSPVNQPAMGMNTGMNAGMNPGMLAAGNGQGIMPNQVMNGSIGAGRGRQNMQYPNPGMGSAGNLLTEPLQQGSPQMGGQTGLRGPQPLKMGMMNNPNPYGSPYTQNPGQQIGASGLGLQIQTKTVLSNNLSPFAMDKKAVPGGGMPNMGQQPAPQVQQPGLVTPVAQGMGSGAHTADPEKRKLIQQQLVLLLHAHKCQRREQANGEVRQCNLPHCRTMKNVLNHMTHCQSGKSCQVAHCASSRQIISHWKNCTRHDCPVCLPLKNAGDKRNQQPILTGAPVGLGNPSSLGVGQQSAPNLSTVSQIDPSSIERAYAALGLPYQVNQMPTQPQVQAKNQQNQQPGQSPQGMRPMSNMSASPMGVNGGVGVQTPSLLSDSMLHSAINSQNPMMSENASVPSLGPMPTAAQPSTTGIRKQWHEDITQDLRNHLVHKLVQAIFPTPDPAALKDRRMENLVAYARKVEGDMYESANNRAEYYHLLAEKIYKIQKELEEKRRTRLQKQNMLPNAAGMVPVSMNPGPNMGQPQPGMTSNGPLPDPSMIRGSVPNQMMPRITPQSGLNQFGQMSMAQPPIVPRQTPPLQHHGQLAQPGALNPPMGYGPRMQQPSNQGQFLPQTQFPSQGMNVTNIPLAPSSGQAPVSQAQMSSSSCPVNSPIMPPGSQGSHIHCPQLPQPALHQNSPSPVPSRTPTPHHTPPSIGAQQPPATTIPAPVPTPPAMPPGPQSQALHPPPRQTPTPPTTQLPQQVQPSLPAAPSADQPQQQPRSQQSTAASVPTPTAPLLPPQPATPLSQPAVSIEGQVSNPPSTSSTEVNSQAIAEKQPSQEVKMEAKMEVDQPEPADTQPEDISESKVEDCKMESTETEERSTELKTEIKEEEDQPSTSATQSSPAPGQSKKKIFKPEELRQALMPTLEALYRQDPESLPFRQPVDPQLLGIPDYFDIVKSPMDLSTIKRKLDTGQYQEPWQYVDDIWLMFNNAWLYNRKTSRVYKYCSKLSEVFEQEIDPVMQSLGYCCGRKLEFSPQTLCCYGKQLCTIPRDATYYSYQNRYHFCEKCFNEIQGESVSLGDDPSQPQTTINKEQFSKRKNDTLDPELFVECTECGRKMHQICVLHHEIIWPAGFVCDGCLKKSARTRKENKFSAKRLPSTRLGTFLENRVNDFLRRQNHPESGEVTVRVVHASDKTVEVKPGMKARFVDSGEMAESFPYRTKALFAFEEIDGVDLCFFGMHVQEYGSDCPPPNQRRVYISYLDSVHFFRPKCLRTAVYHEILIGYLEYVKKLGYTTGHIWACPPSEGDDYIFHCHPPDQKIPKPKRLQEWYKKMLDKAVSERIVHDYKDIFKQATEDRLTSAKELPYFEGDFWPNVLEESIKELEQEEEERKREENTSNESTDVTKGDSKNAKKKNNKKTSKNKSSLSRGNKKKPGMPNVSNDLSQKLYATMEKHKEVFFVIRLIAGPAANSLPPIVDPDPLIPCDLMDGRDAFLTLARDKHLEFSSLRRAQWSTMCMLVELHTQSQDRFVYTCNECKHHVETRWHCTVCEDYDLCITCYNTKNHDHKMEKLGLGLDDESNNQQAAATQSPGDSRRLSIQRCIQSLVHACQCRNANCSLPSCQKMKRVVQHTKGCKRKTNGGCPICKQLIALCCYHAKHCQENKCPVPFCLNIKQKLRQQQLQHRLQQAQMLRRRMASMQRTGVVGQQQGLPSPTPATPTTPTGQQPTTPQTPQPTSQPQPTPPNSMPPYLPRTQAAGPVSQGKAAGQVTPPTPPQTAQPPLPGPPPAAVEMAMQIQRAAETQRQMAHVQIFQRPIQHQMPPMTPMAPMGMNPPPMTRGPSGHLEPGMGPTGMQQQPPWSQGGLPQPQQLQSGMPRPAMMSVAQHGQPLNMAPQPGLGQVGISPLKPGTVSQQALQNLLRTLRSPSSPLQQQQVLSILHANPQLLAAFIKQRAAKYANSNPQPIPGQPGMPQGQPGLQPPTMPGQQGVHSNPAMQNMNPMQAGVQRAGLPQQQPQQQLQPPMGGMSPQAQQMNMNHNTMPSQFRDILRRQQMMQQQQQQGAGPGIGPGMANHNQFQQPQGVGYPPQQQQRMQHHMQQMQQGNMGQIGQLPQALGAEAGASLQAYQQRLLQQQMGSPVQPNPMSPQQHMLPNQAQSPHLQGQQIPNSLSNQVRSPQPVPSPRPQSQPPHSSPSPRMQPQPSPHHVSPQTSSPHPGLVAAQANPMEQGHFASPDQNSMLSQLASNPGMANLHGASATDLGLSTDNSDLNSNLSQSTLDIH

[7] = Inhibition of hypoxia induced HIF-1 transcriptional activity in human T47D cells incubated for 1 hr followed by exposure to hypoxic condition for 20 hrs by renilla and HRE-luciferase based dual-luciferase reporter assay; assay type: cell-based
MCF7 = experiment: Antiproliferative activity against human MCF7 cells assessed as inhibition of cell growth incubated for 72 hrs by MTT assay; assay type: functional, cell-based; conditions: MCF7, 72 h
HeLa [8] = experiment: Cytotoxicity against human HeLa cells assessed as inhibition of cell growth by Sulforhodamine B colorimetric assay; assay type: functional, cell-based
Acetylcholinesterase = Acetylcholinesterase (Homo sapiens, UniProt P22303); experiment: Inhibition of acetylcholinesterase (unknown origin) using acetylthiocholine iodide as substrate incubated for 10 mins by Ellman's colorimetric method
Sequence of Acetylcholinesterase (P22303 whole entry): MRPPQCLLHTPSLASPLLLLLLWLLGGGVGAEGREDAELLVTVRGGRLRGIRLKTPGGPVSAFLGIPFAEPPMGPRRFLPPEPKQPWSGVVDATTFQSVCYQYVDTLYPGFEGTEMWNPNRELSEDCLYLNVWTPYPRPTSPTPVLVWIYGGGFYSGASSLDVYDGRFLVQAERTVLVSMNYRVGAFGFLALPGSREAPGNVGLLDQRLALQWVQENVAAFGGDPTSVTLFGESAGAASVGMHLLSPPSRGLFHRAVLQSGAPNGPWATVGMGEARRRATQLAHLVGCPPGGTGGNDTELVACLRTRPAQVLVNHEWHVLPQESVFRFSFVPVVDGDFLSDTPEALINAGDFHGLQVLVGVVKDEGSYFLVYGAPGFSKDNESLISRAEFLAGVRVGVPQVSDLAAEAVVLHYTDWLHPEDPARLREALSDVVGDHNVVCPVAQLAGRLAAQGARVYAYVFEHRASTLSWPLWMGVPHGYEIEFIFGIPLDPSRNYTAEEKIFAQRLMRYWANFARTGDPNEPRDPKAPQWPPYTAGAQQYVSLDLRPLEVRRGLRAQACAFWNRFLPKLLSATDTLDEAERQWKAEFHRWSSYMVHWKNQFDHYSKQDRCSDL

[9] = target: Amine oxidase [flavin-containing] B (Homo sapiens, UniProt P27338); experiment: Inhibition of human MAO-B preincubated for 30 mins followed by substrate addition and measured for 10 to 40 mins by fluorescence based assay
Sequence of Amine oxidase [flavin-containing] B (P27338 whole entry): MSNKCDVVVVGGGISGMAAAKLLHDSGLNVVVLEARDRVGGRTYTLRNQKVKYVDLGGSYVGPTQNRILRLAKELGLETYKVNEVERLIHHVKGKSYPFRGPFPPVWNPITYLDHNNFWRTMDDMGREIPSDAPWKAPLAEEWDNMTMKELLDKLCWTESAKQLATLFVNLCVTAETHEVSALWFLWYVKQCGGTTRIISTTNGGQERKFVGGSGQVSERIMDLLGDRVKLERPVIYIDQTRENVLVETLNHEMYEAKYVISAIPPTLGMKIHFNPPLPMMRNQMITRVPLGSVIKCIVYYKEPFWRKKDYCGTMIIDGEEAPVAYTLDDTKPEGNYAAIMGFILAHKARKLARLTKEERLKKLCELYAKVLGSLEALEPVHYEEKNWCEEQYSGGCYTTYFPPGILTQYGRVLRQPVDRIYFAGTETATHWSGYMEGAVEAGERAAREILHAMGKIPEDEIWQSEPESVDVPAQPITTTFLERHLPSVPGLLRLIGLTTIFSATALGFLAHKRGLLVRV

Escherichia coli [10] = experiment: Antibacterial activity against Escherichia coli assessed as inhibition of bacterial growth incubated for 24 hrs by micro broth dilution method; assay type: functional
Ca-Ski = experiment: Anticancer activity against human Ca-Ski cells assessed as inhibition of cell growth by Sulforhodamine B colorimetric assay; assay type: functional, cell-based
Staphylococcus aureus [11] = experiment: Antibacterial activity against Staphylococcus aureus CICC 23656 assessed as inhibition of bacterial growth incubated for 24 hrs by broth microdilution method; assay type: functional
Staphylococcus aureus [12] = experiment: Antibacterial activity against methicillin-resistant Staphylococcus aureus ATCC 700699 assessed as inhibition of bacterial growth incubated for 24 hrs by broth microdilution method; assay type: functional
Clostridium perfringens = experiment: Antibacterial activity against Clostridium perfringens CICC 22949 assessed as inhibition of bacterial growth incubated for 24 hrs by broth microdilution method; assay type: functional
Streptococcus pyogenes = experiment: Antibacterial activity against Streptococcus pyogenes CICC 10356 assessed as inhibition of bacterial growth incubated for 24 hrs by broth microdilution method; assay type: functional
Escherichia coli [13] = experiment: Antibacterial activity against Escherichia coli CICC 10389 assessed as inhibition of bacterial growth incubated for 24 hrs by broth microdilution method; assay type: functional
Shigella dysenteriae = experiment: Antibacterial activity against Shigella dysenteriae CICC 23829 assessed as inhibition of bacterial growth incubated for 24 hrs by broth microdilution method; assay type: functional
Salmonella enteritidis = experiment: Antibacterial activity against Salmonella enteritidis CICC 24119 assessed as inhibition of bacterial growth incubated for 24 hrs by broth microdilution method; assay type: functional, Salmonella enterica subsp. enterica serovar Enteritidis; conditions: Salmonella enterica
Pseudomonas aeruginosa [14] = experiment: Antibacterial activity against Pseudomonas aeruginosa CICC 10419 assessed as inhibition of bacterial growth incubated for 24 hrs by broth microdilution method; assay type: functional
[15] = Antioxidant activity assessed as DPPH radical scavenging activity measured after 25 mins by UV visible spectrophotometeric analysis; assay type: functional
[16] = Antioxidant activity assessed as ABTS radical scavenging activity incubated for 10 mins by UV spectrophotometeric analysis; assay type: functional
Influenza A virus = experiment: Antiviral activity against influenza virus A A/PR/8/34 infected in MDCK cells assessed as inhibition of virus-induced cytopathic effect measured after 48 hrs by SRB bioassay; assay type: functional, organism-based; conditions: A/PR/8/34, MDCK
[17] = Cytotoxicity against MDCK cells incubated for 48 hrs by SRB bioassay; assay type: toxicity, cell-based, Canis lupus familiaris; conditions: dog
[18] = Therapeutic index, ratio of CC50 for cytotoxicity against MDCK cells to IC50 for antiviral activity against influenza virus A A/PR/8/34; assay type: toxicity, cell-based; conditions: dog, read-out: TI

In the case of `COc1ccc2cc3[n+](cc2c1OC(=O)C1(C)CCCCC1)CCc1cc2c(cc1-3)OCO2`, the inhibition at 5 µM (HEK-293T) is reported as > 90%.

In the case of `CCCCCCN(CCCCCC)c1cc(OC)c(OC)c2c[n+]3c(cc12)-c1cc2c(cc1CC3)OCO2`, the IC50 (HCT-8 [1]) is reported as 0.26 µM, the IC50 (Bel-7402) is reported as 0.26 µM and the IC50 (A549) is reported as 0.26 µM. It also gave an IC50 (HeLa [2]) of 0.26 µM.

For `COc1ccc2cc3[n+](cc2c1OC)CCc1cc2c(cc1-3)OCO2` [BERBERINE CHLORIDE], the IC50 (HCT-116) was 25 µM, the IC50 (LS174T) was 25 µM and the IC50 (SW-620) was 25 µM. It also gave an IC50 (SGC-7901) of 25 µM, an IC50 (ECa-109 cell line) of 25 µM and an IC50 (MKN-28) of 25 µM. The IC50 (HCT-8 [3]) was 25 µM and the IC50 (CCRF S-180) was 25 µM.

For `CCCC(CCC)C(=O)Oc1c(OC)ccc2cc3[n+](cc12)CCc1cc2c(cc1-3)OCO2`, the inhibition at 5 µM (HEK-293T) was > 90%.

`CCCCOc1c(OC)cc(/C=C2\SC(=O)NC2=O)c2c1CN1CCc3cc4c(cc3C1C2)OCO4` (centres undefined) showed an MIC (Staphylococcus aureus [4]) of 8 µM (≈ 4.07 µg/mL), an MIC (Pseudomonas aeruginosa [5]) of 8 µM (≈ 4.07 µg/mL) and an MIC (Candida parapsilosis) of 8 µM (≈ 4.07 µg/mL). It also gave an MIC (Candida albicans) of 16 µM (≈ 8.14 µg/mL).

`COc1cc2cc3[n+](cc2cc1OC)CCCc1cc2c(cc1-3)OCO2` showed an IC50 [6] of 1.8 µM.

In the case of `COc1cc(-c2ccc(-c3ccccc3)cc2)c2cc3[n+](cc2c1OC)CCc1cc2c(cc1-3)OCO2`, the IC50 [7] is reported as 0.74 µM and the IC50 (MCF7) is reported as 0.98 µM.

`COc1cc(CN2CCN(c3cccc4ccccc34)CC2)c2cc3[n+](cc2c1O)CCc1cc2c(cc1-3)OCO2` showed a CC50 (HeLa [8]) of 478 µM and an IC50 (HeLa [8]) of 8.31 µM.

In the case of `COc1ccc2cc3[n+](cc2c1OC)CCc1cc(O)c(O)cc1-3`, the IC50 (Acetylcholinesterase) is reported as 7.8 µM and the IC50 [9] is reported as 9.06 µM.

`COc1cc(/C=C(\C#N)n2cc([N+](=O)[O-])nc2C)c2c(c1OCc1ccccc1F)CN1CCc3cc4c(cc3C1C2)OCO4` (centres undefined) showed an MIC (Escherichia coli [10]) of 3 µM (≈ 1.83 µg/mL).

Molecule `COc1cc(CN2CCN(C(=O)c3ccco3)CC2)c2cc3[n+](cc2c1O)CCc1cc2c(cc1-3)OCO2` has a CC50 (Ca-Ski) of 344 µM and an IC50 (Ca-Ski) of 6.11 µM.

`COc1ccc2cc3[n+](cc2c1OCc1ccc([N+](=O)[O-])cc1)CCc1cc2c(cc1-3)OCO2` showed an MIC (Staphylococcus aureus [11]) of 1.71 µM, an MIC (Staphylococcus aureus [12]) of 1.71 µM and an MIC (Clostridium perfringens) of 1.71 µM. The MIC (Streptococcus pyogenes) was 1.71 µM, the MIC (Escherichia coli [13]) was 1.71 µM and the MIC (Shigella dysenteriae) was 1.71 µM. It also gave an MIC (Salmonella enteritidis) of 1.71 µM and an MIC (Pseudomonas aeruginosa [14]) of 1.71 µM.

With `CCCCCCOc1c(OC)cc(/C=C2\SC(=O)NC2=O)c2c1CN1CCc3cc4c(cc3C1C2)OCO4` (centres undefined) the MIC (Candida parapsilosis) was 60 µM (≈ 32.2 µg/mL) and the MIC (Candida albicans) was 15 µM (≈ 8.05 µg/mL).

Molecule `COc1ccc2cc3[n+](cc2c1OCCCCCn1ccc2ccccc21)CCc1cc2c(cc1-3)OCO2` has an IC50 [15] of 17.1 µM and an IC50 [16] of 9.64 µM.

In the case of `COc1ccc(N2CCN(CCCCCOc3c(OC)ccc4cc5[n+](cc34)CCc3cc4c(cc3-5)OCO4)CC2)c(OC)c1.[Cl-]`, the IC50 (Influenza A virus) is reported as 35.2 µg/mL, the CC50 at 48 h [17] is reported as 3890 µg/mL and the selectivity ratio [18] is reported as 111.

With `Oc1cc2c(cc1O)-c1cc3ccc(O)c(O)c3c[n+]1CC2` the IC50 (Acetylcholinesterase) was 2.3 µM.
